Data from patent US20050107289A1, “Anti-microbial peptides and compositions” (priority 2001, published 2005).
Non-standard residues stand in square brackets, D forms with d. Residues, ends and D or L forms follow the SMILES beside them.

Experiments:
[1] = tested on: S. aureus (MRSA) (ATCC No. 33591); experiment: Time-killing curve, S. aureus MRSA ATCC 33591; assay type: cell-based, Staphylococcus aureus; conditions: FIG. 8a; at MIC concentrations
Procedure: (§1) The speed at which several of the cyclic peptides of the invention kill E. coli JM 109 (DE3), Enterococcus faecium SP 180 and S. aureus (MRSA) (ATCC No. 33591 and 33592) was further tested at room temperature and/or at 37° C. A lower temperature tends to enrich the bacterial cultures for mature bacteria because the bacteria are not growing quickly. […] The presence or absence of immature bacteria in the culture may influence the rate at which the bacteria are killed, because immature bacteria tend to be more susceptible to many forms of antibiotics.
To generate the data shown in FIG. 8a, the log of the number of colony forming units (cfu) per ml of culture was determined as a function of time after treatment of S. aureus (MRSA) (ATCC No. 33591) with cyclo[KHLWLW] (closed circles), cyclo[KRKWLWLW] (closed triangles), and cyclo[KQRWLWLW] (open squares) at MIC concentrations. […] The reduction in cfu count was greater than 3 log units. Cyclic peptide cyclo[KHLWLW] killed effectively all S. aureus (MRSA) within about 60 minutes.

[2] = tested on: Bacillus cereus ATCC 11778; assay type: cell-based
Procedure, shortened: (§2)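 Overnight bacterial cultures, diluted 4000 times to roughly 2.5×10^5 cfu/ml, are added to 2-fold peptide dilution series. Peptide series span approximately 400-2 μg/ml as prepared in DMSO/aqueous sucrose, before mixing with inoculum. Testing follows NCCLS M7-A4 broth dilution, chiefly the microdilution format.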

[3] = tested on: Streptococcus pneumoniae (ATCC 6301); assay type: cell-based
Procedure, shortened: as §2

[4] = tested on: S. aureus (MRSA) (ATCC No. 33592); experiment: Time-killing curve, S. aureus MRSA ATCC 33592; assay type: cell-based, Staphylococcus aureus; conditions: about 4 μg/ml
Procedure: as §1
FIGS. 9 and 10 illustrate the time course for killing S. aureus (MRSA) (ATCC No. 33592) with varying concentrations of cyclo[KSKWLWLW] cyclic peptide (SEQ ID NO:12) at room temperature and at 37° C. […] This may be due to growth of a few survivors after the residual cyclic peptide within the culture has been exhausted because the amount of peptide employed in that assay was below the MIC value.

E. faecium SP180 = experiment: Time-killing curve, E. faecium SP180; assay type: cell-based, Enterococcus faecium; conditions: for time to kill effectively all bacteria / killing of bacteria: about 2 μg/ml, BHI broth
Procedure: as §1
FIGS. 11 and 12 illustrate the time course for killing E. faecium SP 180 with varying concentrations of KSKWLWLW (SEQ ID NO:12), at room temperature and at 37° C. Assays were performed in Brain Heart Infusion broth. As illustrated, somewhat shorter times and/or somewhat lower concentrations of this cyclic peptide are required to kill E. faecium SP180 at 37° C. than at room temperature. E. faecium SP180 is vancomycin resistant (vanA) and multiply resistant to several FDA approved antibiotics. […] This may be due to growth of a few survivors after the residual cyclic peptide within the culture has been exhausted because the amount of peptide employed in that assay was below the MIC value.

[5] = tested on: vancomycin resistant E. faecium (VREF)(ATCC 51575); experiment: Mouse peritonitis model, VREF protection; assay type: in vivo, mice; parameters: PD50 VREF: unit not given here; conditions: for PD50 VREF: Table 12, male Balb-C mice, IP infection, IP peptide; for In Vivo VREF PD50: Table 13; for protection of mice from VREF infection: single bolus IP dose of appropriate amount, 45-60 min after infection
Procedure: Vancomycin resistant Enterococcus faecium (VREF) bacteria (ATCC 51575) were grown at 37° C. in 60 mL of Brain Heart Infusion medium (BHI, Difco Laboratories) with agitation for 16 hours to a stationary phase. Cells were collected by centrifugation, washed twice with saline solution and resuspended in 6 mL of saline to a theoretical O.D.650 of 9-10 (determined by taking OD.650 of 10-20 fold diluted samples and correlating it to the original concentration). This suspension was diluted 15 times in a sterilized 5% mucin (Difco) in saline to a concentration of 5-7×10^8 cfu/ml (actual inoculum size was verified by colony counts on agar plates).
Peptides of the invention were tested in mice to ascertain whether they would protect the mice against bacterial infection using procedures similar to those described in N. Frimodt-Moller et al., The Mouse Peritonitis/Sepsis Model, in Zak et al. (eds.) HANDBOOK OF ANIMAL MODELS OF INFECTION 127-37 (Academic Press 1999).
Male Balb-C mice (6 weeks old, approximately 20 g) were used in the study. Staphylococcus aureus MRSA bacteria (ATCC 33591) were grown at 37° C. with agitation for 12 hours to a stationary phase. Cells were collected by centrifugation, washed twice with saline and resuspended to an O.D.650 of 1.4. This suspension was diluted ten times with saline and resuspended to a concentration of 3-5×10^7 cfu/ml. For each peptide five groups of eight mice per group were infected I.P. with 0.5 ml of the above Staphylococcus aureus MRSA preparation (lethal dose). Forty-five minutes to an hour after infection, each group was treated with a different dose of peptide and a control group received vehicle only. Mice were monitored for fourteen days; death was defined as the end point. Median protecting doses (PD50) were calculated following the Reed and Muench method. […] For IV and SQ models peptide was administered immediately after IP infection.

| Structure (SMILES) | time to kill effectively all S. aureus (MRSA) [1] | B. cerius MIC [2] [µg/mL] | S. pneum. MIC [3] [µg/mL] | rebound of bacterial population ([4]; 37° C.) | time to kill effectively all bacteria ([4]; 37° C.) | rebound of bacterial population ([4]; room temperature) | time to kill all S. aureus (MRSA) ([4]; room temperature) [h] | rebound in bacterial viability (E. faecium SP180; 1 μg/ml, 37° C.) | time after which effectively no cfu can be detected (E. faecium SP180; 1 μg/ml, 37° C.) [h] | surviving bacteria (E. faecium SP180; 1 μg/ml, room temperature) | time to kill effectively all bacteria (E. faecium SP180; 37° C.) | killing of bacteria (E. faecium SP180; room temperature) | PD50 E. faecium VREF infection [5] [mg/kg] | PD50 VREF [5] | In Vivo VREF PD50 [5] [mg/kg] | protection of mice from VREF infection [5] |
| --- | --- | --- | --- | --- | --- | --- | --- | --- | --- | --- | --- | --- | --- | --- | --- | --- |
| CC(C)C[C@H]1NC(=O)[C@H](Cc2c[nH]c3ccccc23)NC(=O)[C@@H](CCCNC(=N)N)NC(=O)[C@H](CCC(N)=O)NC(=O)[C@@H](CCCCN)NC(=O)[C@H](Cc2c[nH]c3ccccc23)NC(=O)[C@@H](CC(C)C)NC(=O)[C@H](Cc2c[nH]c3ccccc23)NC1=O [SEQ ID NO:8, cyclo-(D-Lys-Gln-D-Arg-Trp-D-Leu-Trp-D-Leu-Trp)] (cyclo([dK]Q[dR]W[dL]W[dL]W)) | within about five minutes | – | – | – | – | – | – | – | – | – | – | – | – | – | – | – |
| CC(C)C[C@H]1NC(=O)[C@H](Cc2c[nH]c3ccccc23)NC(=O)[C@@H](CCCCN)NC(=O)[C@H](CO)NC(=O)[C@@H](CCCCN)NC(=O)[C@H](Cc2c[nH]c3ccccc23)NC(=O)[C@@H](CC(C)C)NC(=O)[C@H](Cc2c[nH]c3ccccc23)NC1=O [SEQ ID NO:12, D-Lys-Ser-D-Lys-Trp-D-Leu-Trp-D-Leu-Trp] (cyclo([dK]S[dK]W[dL]W[dL]W)) | – | < 3 | 10 | rebounds by about six hours | within about one hour | no rebound is observed | ≤ 2 | rebound in bacterial viability | 2 | viable bacteria can be detected throughout the entire time-course | faster than an aliquot can be removed from the test culture | discernible numbers of surviving bacteria can be detected immediately | 5 | 5 | 5 | completely protect |
| CC(C)C[C@H]1NC(=O)[C@H](Cc2c[nH]c3ccccc23)NC(=O)[C@@H](CCCCN)NC(=O)[C@H](CCCNC(=N)N)NC(=O)[C@@H](CCCNC(=N)N)NC(=O)[C@H](Cc2c[nH]c3ccccc23)NC(=O)[C@@H](CC(C)C)NC(=O)[C@H](Cc2c[nH]c3ccccc23)NC1=O [SEQ ID NO:18, cyclo-(D-Arg-Arg-D-Lys-Trp-D-Leu-Trp-D-Leu-Trp)] (cyclo([dR]R[dK]W[dL]W[dL]W)) | – | 5 | 5 | rebounds by about eight hours | within about one hour | no rebound is observed | ≤ 1 | – | – | – | within one hour | within one hour | 7 | 7 | 7 | completely protect |
